In ChEMBL document CHEMBL1147598, “1-(2-Naphthyl)-1H-pyrazole-5-carboxylamides as potent factor Xa inhibitors. Part 3: Design, synthesis and SAR of orally bioavailable benzamidine-P4 inhibitors” (Bioorg Med Chem Lett, 2004):

Experiments:
Coagulation factor X [1] = target: T1, Coagulation factor X (Homo sapiens, UniProt P00742); assay: In vitro inhibitory activity against human coagulation factor X
Coagulation factor X [2] = target: T1, Coagulation factor X; assay: Binding affinity for human Coagulation factor X
[3] = In vitro anticoagulant potency measured in human plasma by thrombin generation (TG) assay expressed as 2 x TG; type: functional
[4] = (§1) Volume of distribution in rat; type: ADME, organism-based; conditions: in vivo
[5] = (§2) Clearance rate in rat; type: ADME, organism-based; conditions: in vivo
[6] = Bioavailability in rat; type: ADME, organism-based; conditions: in vivo
[7] = (§3) Half-life determined in rat; type: ADME, organism-based; conditions: in vivo
[8] = target: Vitamin K-dependent protein C (Homo sapiens, UniProt P04070); assay: Inhibitory activity against activated protein C was determined
Kallikrein-1 = Kallikrein-1 (Homo sapiens, UniProt P06870); assay: Inhibitory activity of compound against kallikrein
Oryctolagus cuniculus [9] = assay: In vivo inhibition of thrombus accretion at a plasma level of 4.5 […] in the rabbit deep vein thrombosis (DVT) model; type: functional
Oryctolagus cuniculus [10] = assay: In vivo inhibition of thrombus accretion at a plasma level of 3.7 […] in the rabbit deep vein thrombosis (DVT) model; type: functional
Prothrombin = Prothrombin (Homo sapiens, UniProt P00734); assay: Inhibitory activity of compound against thrombin
[11] = target: Tissue-type plasminogen activator (Homo sapiens, UniProt P00750); assay: Inhibitory activity of compound against tissue type plasminogen activator
Serine protease 1 = Serine protease 1 (Homo sapiens, UniProt P07477); assay: Inhibitory activity of compound against trypsin
[12] = target: Plasminogen (Homo sapiens) (UniProt P00747); assay: Inhibitory activity of compound against plasmin
Rattus norvegicus [13] = species: Rattus norvegicus; assay: as §1; type: ADME, organism-based; conditions: in vivo
Rattus norvegicus [14] = species: Rattus norvegicus; assay: as §2; type: ADME, organism-based; conditions: in vivo
Rattus norvegicus [15] = species: Rattus norvegicus; assay: as §3; type: ADME, organism-based; conditions: in vivo
Oryctolagus cuniculus [16] = assay: In vivo inhibition of thrombus accretion at a plasma level of 3.9 […] in the rabbit deep vein thrombosis (DVT) model; type: functional
Oryctolagus cuniculus [17] = assay: In vivo inhibition of thrombus accretion at a plasma level of 4.6 […] in the rabbit deep vein thrombosis (DVT) model; type: functional

T1 sequence (P00742 41-179 limits assumed): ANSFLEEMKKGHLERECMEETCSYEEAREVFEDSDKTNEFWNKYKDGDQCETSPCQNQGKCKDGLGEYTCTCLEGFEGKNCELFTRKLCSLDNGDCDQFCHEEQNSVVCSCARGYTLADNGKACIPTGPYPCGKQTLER
T1 sequence (P00742 235-488 limits assumed): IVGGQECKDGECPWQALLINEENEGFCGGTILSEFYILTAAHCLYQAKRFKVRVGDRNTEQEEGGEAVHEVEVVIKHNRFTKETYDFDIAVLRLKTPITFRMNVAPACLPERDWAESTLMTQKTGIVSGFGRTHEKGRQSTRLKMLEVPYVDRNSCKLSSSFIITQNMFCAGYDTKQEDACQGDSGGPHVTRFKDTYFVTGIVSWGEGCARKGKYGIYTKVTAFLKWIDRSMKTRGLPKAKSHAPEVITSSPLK
Kallikrein-1, sequence (P06870 whole entry): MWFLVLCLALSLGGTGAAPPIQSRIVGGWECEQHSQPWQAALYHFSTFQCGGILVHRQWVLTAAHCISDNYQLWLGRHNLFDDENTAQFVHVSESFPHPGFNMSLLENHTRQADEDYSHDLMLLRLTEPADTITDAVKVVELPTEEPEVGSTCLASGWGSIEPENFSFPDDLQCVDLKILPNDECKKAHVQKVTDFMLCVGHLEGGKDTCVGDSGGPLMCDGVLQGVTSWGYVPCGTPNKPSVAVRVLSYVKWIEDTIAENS
Serine protease 1, sequence (P07477 whole entry): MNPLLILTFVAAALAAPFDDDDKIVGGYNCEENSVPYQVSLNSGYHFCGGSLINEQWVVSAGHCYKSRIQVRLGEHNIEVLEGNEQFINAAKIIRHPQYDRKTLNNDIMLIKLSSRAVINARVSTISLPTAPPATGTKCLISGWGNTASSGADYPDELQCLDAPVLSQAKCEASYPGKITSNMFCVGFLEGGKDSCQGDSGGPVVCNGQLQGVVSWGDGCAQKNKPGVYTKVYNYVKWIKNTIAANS
Plasminogen (Homo sapiens), sequence (P00747 whole entry, looked up): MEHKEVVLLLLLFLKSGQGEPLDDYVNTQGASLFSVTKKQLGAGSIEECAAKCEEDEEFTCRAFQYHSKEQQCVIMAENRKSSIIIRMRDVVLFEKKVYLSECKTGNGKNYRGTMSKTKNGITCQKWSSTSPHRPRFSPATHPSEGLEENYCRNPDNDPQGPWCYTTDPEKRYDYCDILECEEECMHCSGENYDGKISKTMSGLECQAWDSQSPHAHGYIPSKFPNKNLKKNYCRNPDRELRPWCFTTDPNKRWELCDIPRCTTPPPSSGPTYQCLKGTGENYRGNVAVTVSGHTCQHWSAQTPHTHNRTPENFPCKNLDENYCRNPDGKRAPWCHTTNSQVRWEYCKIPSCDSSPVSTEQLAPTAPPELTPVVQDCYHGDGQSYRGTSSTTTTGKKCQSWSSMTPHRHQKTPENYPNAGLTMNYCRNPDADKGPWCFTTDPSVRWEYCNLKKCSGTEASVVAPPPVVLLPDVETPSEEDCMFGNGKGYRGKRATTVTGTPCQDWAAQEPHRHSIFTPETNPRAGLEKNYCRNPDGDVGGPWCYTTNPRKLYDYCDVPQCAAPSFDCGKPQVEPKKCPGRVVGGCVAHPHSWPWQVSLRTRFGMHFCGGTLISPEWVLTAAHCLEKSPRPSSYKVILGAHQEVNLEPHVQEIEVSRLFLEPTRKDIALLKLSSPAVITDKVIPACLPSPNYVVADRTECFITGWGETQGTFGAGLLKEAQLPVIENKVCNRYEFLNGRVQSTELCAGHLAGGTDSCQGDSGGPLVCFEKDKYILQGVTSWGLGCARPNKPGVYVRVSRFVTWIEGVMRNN
Vitamin K-dependent protein C, sequence (P04070 43-197 limits assumed): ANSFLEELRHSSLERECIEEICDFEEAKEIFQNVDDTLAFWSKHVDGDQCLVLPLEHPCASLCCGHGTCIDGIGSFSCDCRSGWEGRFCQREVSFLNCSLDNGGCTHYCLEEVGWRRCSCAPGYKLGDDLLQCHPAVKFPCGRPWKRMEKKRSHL
Vitamin K-dependent protein C, sequence (P04070 212-461 limits assumed): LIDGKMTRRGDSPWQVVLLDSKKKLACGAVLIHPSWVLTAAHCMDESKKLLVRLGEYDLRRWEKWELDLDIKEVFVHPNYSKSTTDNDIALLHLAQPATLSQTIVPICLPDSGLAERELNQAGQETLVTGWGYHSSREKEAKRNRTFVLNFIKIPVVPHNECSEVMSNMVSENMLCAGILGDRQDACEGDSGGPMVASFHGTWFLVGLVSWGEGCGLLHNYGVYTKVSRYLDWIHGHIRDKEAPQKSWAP
Tissue-type plasminogen activator, sequence (P00750 whole entry): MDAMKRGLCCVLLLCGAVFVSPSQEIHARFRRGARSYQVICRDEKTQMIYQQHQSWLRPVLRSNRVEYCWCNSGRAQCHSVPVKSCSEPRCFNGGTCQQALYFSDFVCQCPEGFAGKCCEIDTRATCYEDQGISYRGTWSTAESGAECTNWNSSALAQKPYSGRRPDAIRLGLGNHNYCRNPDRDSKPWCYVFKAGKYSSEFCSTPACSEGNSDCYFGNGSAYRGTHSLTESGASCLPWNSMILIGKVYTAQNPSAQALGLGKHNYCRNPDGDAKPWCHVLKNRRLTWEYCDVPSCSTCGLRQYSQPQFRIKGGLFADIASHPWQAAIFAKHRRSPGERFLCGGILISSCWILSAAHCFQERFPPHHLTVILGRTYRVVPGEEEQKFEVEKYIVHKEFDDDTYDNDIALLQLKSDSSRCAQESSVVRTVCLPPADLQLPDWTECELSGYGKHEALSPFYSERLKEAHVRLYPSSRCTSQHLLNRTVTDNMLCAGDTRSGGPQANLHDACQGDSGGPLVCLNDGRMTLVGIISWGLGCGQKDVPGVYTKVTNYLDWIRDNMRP

| SMILES | IC50 (Coagulation factor X [1]) | Activity [3] | further results |
| --- | --- | --- | --- |
| Cc1cc(C(=O)Nc2ccc(C(=N)N3CCCCC3)cc2F)n(-c2ccc3cc(Cl)ccc3c2)n1 | 7 nM |  |  |
| Cc1cc(C(=O)Nc2ccc(C3=NCCN3C)cc2F)n(-c2ccc3cc(Cl)ccc3c2)n1 | 8 nM | 0.91 µM | Ki (Coagulation factor X [2]): 1 nM |
| Cc1cc(C(=O)Nc2ccc(C(=N)N)cc2F)n(-c2cc3ccccc3cc2F)n1 | 777 nM |  |  |
| CNC(=N)c1ccc(NC(=O)c2cc(C)nn2-c2cc3ccccc3cc2F)c(F)c1 | 114 nM |  |  |
| CN(C)C(=N)c1ccc(NC(=O)c2cc(C(F)(F)F)nn2-c2ccc3cc(Cl)ccc3c2)c(F)c1 | 1 nM | 1.8 µM | Ki (Coagulation factor X [2]): 0.9 nM |
| Cc1cc(C(=O)Nc2ccc(C(=N)N(C)C)cc2F)n(-c2cc3ccccc3cc2S(C)(=O)=O)n1 | 12 nM | 0.53 µM | Ki (Coagulation factor X [2]): 2.8 nM |
| N=C(c1ccc(NC(=O)c2nnnn2-c2ccc3cc(Cl)ccc3c2)c(F)c1)N1CCCC1 | 7 nM |  |  |
| COCCN(C)C(=N)c1ccc(NC(=O)c2cc(C)nn2-c2cc3ccccc3cc2F)c(F)c1 | 110 nM |  |  |
| Cc1cc(C(=O)Nc2ccc(C(=N)N(C)C)s2)n(-c2cc3ccccc3cc2F)n1 | 511 nM |  |  |
| CN1CCN=C1c1ccc(NC(=O)c2nnnn2-c2cc3ccccc3cc2F)c(F)c1 | 110 nM |  |  |
| Cc1cc(C(=O)Nc2ccc(C(=N)N3CCCCC3)cc2F)n(-c2cc3ccccc3cc2F)n1 | 8 nM | 1.5 µM | Ki (Coagulation factor X [2]): 5.2 nM |
| Cc1cc(C(=O)Nc2ccc(C(=N)N(C)C)cc2F)n(-c2ccc3cc(Cl)ccc3c2)n1 | 5 nM | 0.83 µM | Vd [4]: 82.5 L/kg; clearance [5]: 55.9 mL/min/kg; bioavailability [6]: 13.8%; half-life [7]: 1080 min; IC50 [8]: > 10 µM; Ki (Coagulation factor X [2]): 0.7 nM; IC50 (Kallikrein-1): > 10 µM; Inhibition (Oryctolagus cuniculus [9]): 56%; Inhibition (Oryctolagus cuniculus [10]): 20%; IC50 (Prothrombin): > 10 µM; IC50 [11]: > 10 µM; IC50 (Serine protease 1): > 10 µM; IC50 [12]: > 10 µM |
| N=C(c1ccc(NC(=O)c2cc(C(F)(F)F)nn2-c2cc3ccccc3cc2F)c(F)c1)N1CCCC1 | 10 nM |  |  |
| Cc1cc(C(=O)Nc2ccc(C(=N)N3CCCC3)cc2F)n(-c2ccc3cc(Cl)ccc3c2)n1 | 7 nM |  |  |
| Cc1cc(C(=O)Nc2ccc(C3=NCCN3C)cc2F)n(-c2cc3ccccc3cc2F)n1 | 18 nM | 1.7 µM | Vd [4]: 7.6 L/kg; clearance [5]: 49.3 mL/min/kg; bioavailability [6]: 43.9%; half-life [7]: 108 min; Ki (Coagulation factor X [2]): 8 nM |
| Cc1cc(C(=O)Nc2ccc(C(=N)N(C)C)cc2F)n(-c2cc3ccccc3cc2F)n1 |  | 1 µM | Vd (Rattus norvegicus [13]): 49.4 L/kg; CL (Rattus norvegicus [14]): 54.3 mL/min/kg; bioavailability [6]: 24.3%; T1/2 (Rattus norvegicus [15]): 3.1 h; IC50 [8]: > 10 µM; Ki (Coagulation factor X [2]): 3.9 nM; IC50 (Kallikrein-1): > 10 µM; IC50 (Prothrombin): > 10 µM; IC50 [11]: > 10 µM; IC50 (Serine protease 1): > 10 µM; IC50 [12]: > 10 µM |
| CCCN(C)C(=N)c1ccc(NC(=O)c2cc(C)nn2-c2cc3ccccc3cc2F)c(F)c1 | 34 nM |  |  |
| Cc1cc(C(=O)Nc2ccc(C(=N)N3CCCC3)cc2F)n(-c2cc3ccccc3cc2F)n1 | 6 nM | 1.4 µM | Ki (Coagulation factor X [2]): 4.1 nM |
| CN(C)C(=N)c1ccc(NC(=O)c2nnnn2-c2ccc3cc(Cl)ccc3c2)c(F)c1 | 2 nM | 2.5 µM | Ki (Coagulation factor X [2]): 0.7 nM |
| CCN(C)C(=N)c1ccc(NC(=O)c2cc(C)nn2-c2cc3ccccc3cc2F)c(F)c1 | 22 nM |  |  |

| SMILES | IC50 (Coagulation factor X [1]) | Activity [3] | further results |
| --- | --- | --- | --- |
| N=C(c1ccc(NC(=O)c2nnnn2-c2ccc3cc(Cl)ccc3c2)c(F)c1)N1CCCCC1 | 8 nM |  |  |
| N=C(c1ccc(NC(=O)c2cc(C(F)(F)F)nn2-c2ccc3cc(Cl)ccc3c2)c(F)c1)N1CCCCC1 | 4 nM |  |  |
| Cc1cc(C(=O)Nc2ccc(C(=N)N3CCCCCC3)cc2F)n(-c2cc3ccccc3cc2F)n1 | 50 nM |  |  |
| CN(C)C(=N)c1ccc(NC(=O)c2cc(C(F)(F)F)nn2-c2cc3ccccc3cc2F)c(F)c1 |  | 1.4 µM | Vd [4]: 11 L/kg; clearance [5]: 14.7 mL/min/kg; bioavailability [6]: 46.9%; half-life [7]: 528 min; IC50 [8]: > 10 µM; IC50 (Kallikrein-1): > 10 µM; Inhibition (Oryctolagus cuniculus [16]): 20%; Inhibition (Oryctolagus cuniculus [17]): 51%; IC50 (Prothrombin): > 10 µM; IC50 [11]: > 10 µM; IC50 (Serine protease 1): > 10 µM; IC50 [12]: > 10 µM |
| Cc1cc(C(=O)Nc2cccc(C(=N)N(C)C)c2)n(-c2cc3ccccc3cc2F)n1 | 479 nM |  |  |
| Cc1cc(C(=O)Nc2cc(C(=N)N(C)C)cs2)n(-c2cc3ccccc3cc2F)n1 | 377 nM |  |  |
| Cc1cc(C(=O)Nc2ccc(C(=N)N(C)Cc3ccccc3)cc2F)n(-c2cc3ccccc3cc2F)n1 | 80 nM |  |  |
| Cc1cc(C(=O)Nc2ccc(C3=NCCN3C)cc2F)n(-c2cc3ccccc3cc2S(C)(=O)=O)n1 | 14 nM | 0.78 µM | Ki (Coagulation factor X [2]): 3.9 nM |
| N=C(c1ccc(NC(=O)c2cc(C(F)(F)F)nn2-c2ccc3cc(Cl)ccc3c2)c(F)c1)N1CCCC1 | 2 nM |  |  |
| Cc1cc(C(=O)Nc2ccc(C(=N)N3CCCC3)cc2F)n(-c2cc3ccccc3cc2S(C)(=O)=O)n1 | 15 nM |  |  |
| Cc1cc(C(=O)Nc2ccc(C(=N)N3CCCCC3)cc2F)n(-c2cc3ccccc3cc2S(C)(=O)=O)n1 | 28 nM |  |  |
| CN1CCN=C1c1ccc(NC(=O)c2cc(C(F)(F)F)nn2-c2ccc3cc(Cl)ccc3c2)c(F)c1 | 2 nM | 4.5 µM | Ki (Coagulation factor X [2]): 1.2 nM |
| N=C(c1ccc(NC(=O)c2cc(C(F)(F)F)nn2-c2cc3ccccc3cc2F)c(F)c1)N1CCCCC1 | 11 nM |  |  |
| Cc1cc(C(=O)Nc2ccc(C(=N)N3CCOCC3)cc2F)n(-c2cc3ccccc3cc2F)n1 | 134 nM |  |  |
| N=C(c1ccc(NC(=O)c2nnnn2-c2cc3ccccc3cc2F)c(F)c1)N1CCCC1 | 24 nM |  |  |
| N=C(c1ccc(NC(=O)c2nnnn2-c2cc3ccccc3cc2F)c(F)c1)N1CCCCC1 | 76 nM |  |  |
| CN(C)C(=N)c1ccc(NC(=O)c2nnnn2-c2cc3ccccc3cc2F)c(F)c1 | 16 nM |  |  |
| CN1CCN=C1c1ccc(NC(=O)c2nnnn2-c2ccc3cc(Cl)ccc3c2)c(F)c1 | 15 nM |  |  |
| Cc1cc(C(=O)Nc2ccc(C(=N)N(C)CCN(C)C)cc2F)n(-c2cc3ccccc3cc2F)n1 | 48 nM |  |  |
| Cc1cc(C(=O)Nc2ccc(C(=N)N3CCC3)cc2F)n(-c2cc3ccccc3cc2F)n1 | 50 nM |  |  |
